Results on 2 molecules are retold here after US9072301B2 (priority 2012, dated 2015).

What is called melting point is the temperature of the solid-liquid transition.

For the molecule `CC1OC(=O)c2ncnc(NCCc3ccc(Oc4ccnc(C(F)(F)F)c4)cc3F)c21` (centres unmarked), the melting point was found to be 159 °C. Take `COc1cc(CCNc2ncnc3cnn(C)c23)ccc1Oc1ccnc(C(F)(F)F)c1` [I-10, N-[2-[3-methoxy-4-[[2-(trifluoromethyl)-4-pyridyl]oxy]phenyl]ethyl]-1-methyl-pyrazolo[4,3-d]pyrimidin-7-amine]: the melting point amounted to 178 °C.
